Earlier results as cited in patent US20120142605A1, “METHODS OF TREATING PSORIASIS” (Amgen Inc., priority 2009, published 2012).

System: psoriasis patients
Details: not completely effective for all patients

etanercept
time for which it can be safely and effectively used: at least 96 weeks
